In this data set the test system is rabbits. Kind of data set: Rabbit pyrogenicity test (surrogate measure of incorporation into liposomes). The data set is classed as in vivo. The conditions noted are these: free (non-liposomal) CRX-601. The method, then: The tests were performed at Pacific Biolabs (Hercules, Calif.) as per their SOP 16E-02.

The compound `CCCCCCCCCCC[C@H](CC(=O)N[C@H]1[C@H](OC[C@H](NC(=O)C[C@@H](CCCCCCCCCCC)OCCCCCCCCCC)C(=O)O)O[C@H](CO)[C@@H](OP(=O)(O)O)[C@@H]1OC(=O)C[C@@H](CCCCCCCCCCC)OCCCCCCCCCC)OCCCCCCCCCC` [CRX-601] gave a max non-pyrogenic dose of 2.5 ng/kg.

These data come from patent publication US20170071967A1, “IMMUNOGENIC LIPOSOMAL FORMULATION” (GlaxoSmithKline Biologicals, SA, priority 2014, published 2017).
